# Values quoted from earlier work as cited in US6809181B2, “Human beta-defensin-3 (HBD-3), a highly cationic beta-defensin antimicrobial peptide” (University of Iowa Research Foundation, priority 2000, dated 2004).
# Read-outs that look alike come from different tables or passages of the source.
# How the values were obtained:
# [1] = test system: Staphylococcus aureus (methicillin susceptible); details: unit assumed, cited from earlier work
# [2] = test system: Staphylococcus haemolyticus; details: n=20; r121; unit assumed; cited from earlier work
# Listeria monocytogenes = details: cited from earlier work; for MIC50 / MIC90: unit assumed
# Mycoplasma pneumoniae = details: cited from earlier work
# Campylobacter jejuni = details: cited from earlier work; for MIC50 / MIC90: unit assumed
# Borrelia burgdorferi = details: n=10; r12; unit assumed; cited from earlier work
# [3] = test system: Neisseria gonorrhoeae (non β-lactamase producer); details: cited from earlier work
# Neisseria gonorrhoeae = details: n=19, r81, cited from earlier work
# [4] = test system: Branhamella (Moraxella) catarrhalis; details: n=20, unit assumed, cited from earlier work
# Haemophilus influenzae = details: cited from earlier work; for MIC50 / MIC90: unit assumed
# [5] = test system: Staphylococcus epidermidis; details: n=50; r120; unit assumed; cited from earlier work
# Bacteroides fragilis = details: n=97, r7, cited from earlier work
# Bacillus spp. = details: cited from earlier work
# [6] = test system: Staphylococcus coagulase f; details: unit assumed; cited from earlier work
# Streptococcus pyogenes = details: cited from earlier work
structure (smiles),measurement,setting,value
"CC[C@H]1OC(=O)[C@H](C)[C@@H](O[C@H]2C[C@@](C)(OC)[C@@H](O)[C@H](C)O2)[C@H](C)[C@@H](O[C@@H]2O[C@H](C)C[C@H](N(C)C)[C@H]2O)[C@](C)(O)C[C@@H](C)C(=O)[C@H](C)[C@@H](O)[C@]1(C)O [ERYTHROMYCIN, erythromycin]",MIC50,"[1]; n=20, r104",0.5 µg/mL
same,MIC90,"[1]; n=20, r104",0.5 µg/mL
same,MIC50,"[1]; n=28, r100",0.25 µg/mL
same,MIC90,"[1]; n=28, r100",0.5 µg/mL
same,MIC50,"[1]; n=97, r102",0.25 µg/mL
same,MIC50,[2],64 µg/mL
same,Range,"Listeria monocytogenes; n=13, r74",0.5-1
same,MIC50,"Listeria monocytogenes; n=13, r74",0.5 µg/mL
same,MIC90,"Listeria monocytogenes; n=13, r74",0.5 µg/mL
same,MIC50,"Listeria monocytogenes; n=16, r75",0.25 µg/mL
same,MIC90,"Listeria monocytogenes; n=16, r75",1 µg/mL
same,Range,"Listeria monocytogenes; n=65, r76",0.06-32
same,MIC90,"Listeria monocytogenes; n=65, r76",32 µg/mL
same,Range,"Mycoplasma pneumoniae; n=10, r79",0.06-8
same,MIC90,"Mycoplasma pneumoniae; n=10, r79, unit assumed",0.06 µg/mL
same,Range,"Mycoplasma pneumoniae; n=14, r80",0.004-0.03
same,MIC50,"Mycoplasma pneumoniae; n=14, r80, unit assumed",0.004 µg/mL
same,MIC90,"Mycoplasma pneumoniae; n=14, r80, unit assumed",0.004 µg/mL
same,MIC50,"Campylobacter jejuni; n=16, r42",0.25 µg/mL
same,MIC90,"Campylobacter jejuni; n=16, r42",2 µg/mL
same,Range,"Campylobacter jejuni; n=25, r41",0.5-8
same,MIC50,"Campylobacter jejuni; n=25, r41",1 µg/mL
same,MIC90,"Campylobacter jejuni; n=25, r41",4 µg/mL
same,MIC50,Borrelia burgdorferi,0.03 µg/mL
same,MIC90,Borrelia burgdorferi,0.06 µg/mL
same,Range,"[3]; n=73, r82",0.015-4
same,Range,"[3]; n=78, r84",0.03-2
same,Range,Neisseria gonorrhoeae,0.0075-8
same,MIC50,Neisseria gonorrhoeae; unit assumed,0.25 µg/mL
same,MIC90,Neisseria gonorrhoeae; unit assumed,1 µg/mL
same,MIC50,[4]; r13,0.25 µg/mL
same,MIC50,[4]; r15,0.25 µg/mL
same,MIC90,[4]; r15,1 µg/mL
same,Range,"Haemophilus influenzae; n=97, r55",0.25-16
same,MIC50,"Haemophilus influenzae; n=97, r55",1 µg/mL
same,MIC90,"Haemophilus influenzae; n=97, r55",4 µg/mL
same,Range,"Haemophilus influenzae; n=145, r54",0.5-8
same,MIC50,"Haemophilus influenzae; n=145, r54",2 µg/mL
same,MIC90,"Haemophilus influenzae; n=145, r54",2 µg/mL
same,MIC50,[5],64 µg/mL
same,Range,Bacteroides fragilis,0.25-16
same,MIC50,Bacteroides fragilis; unit assumed,1 µg/mL
same,MIC90,Bacteroides fragilis; unit assumed,8 µg/mL
same,Range,"Bacillus spp.; n=20, r6",0.03-2
same,MIC90,"Bacillus spp.; n=20, r6, unit assumed",2 µg/mL
same,MIC50,Bacillus spp.; unit assumed,0.25 µg/mL
same,MIC50,[6],0.25 µg/mL
same,Range,"Streptococcus pyogenes; n=19, r131",0.03-0.25
same,Range,"Streptococcus pyogenes; n=20, r132",0.03-0.25
same,Range,"Streptococcus pyogenes; n=20, r134",0.06-32
same,MIC90,"Streptococcus pyogenes; n=20, r134, unit assumed",32 µg/mL
same,Range,"Streptococcus pyogenes; n=33, r133",0.015-0.03
same,MIC50,"Streptococcus pyogenes; n=33, r133, unit assumed",0.03 µg/mL
same,MIC90,"Streptococcus pyogenes; n=33, r133, unit assumed",0.03 µg/mL
